Assay results reported in PMC11470957, “Principles of paralog-specific targeted protein degradation engaging the C-degron E3 KLHDC2” (Nature Communications, 2024).
Where “and” joins values, the source holds several entries; their conditions need not be identical. Equal entries are not always repeated. Entries after “also recorded” stand apart in the source; their conditions may differ.

What was measured:
[1] = system: U2OS KLHDC2 KO/rescue and KO cells (proteome); assay: TMT-based total proteomics of dosed U2OS cells; details: 1 μM, 24 h
[2] = system: SKBR3, AU565, RD, SKES1, A673 cells; assay: Cell Titer-Glo Luminescent Cell Viability assay; details: 24 h, read-out: IC50, cell viability
[3] = Measurement of SJ46421 cellular concentration by LC-MS/MS; assay type: in vitro ADME; details: SKBR3, from LC-MS-MS of lysates
neddylated CRL2^KLHDC2 = neddylated CRL2^KLHDC2 (Homo sapiens, UniProt Q9Y2U9, G405K/S406K); assay: biochemical
BRD3^BD2 = BRD3^BD2 (Homo sapiens, UniProt Q15059); assay: ITC, binary binding to BRD3^BD2
Chain of BRD3^BD2 (Q15059 306-416): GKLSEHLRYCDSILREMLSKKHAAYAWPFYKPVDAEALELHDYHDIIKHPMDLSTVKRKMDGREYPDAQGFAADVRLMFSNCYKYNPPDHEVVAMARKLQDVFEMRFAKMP

KLHDC2^SBD / BRD2^BD2 = KLHDC2^SBD / BRD2^BD2 (Homo sapiens, UniProt P25440+Q9Y2U9); assay: ITC, ternary complex KLHDC2^SBD with PROTAC-BRD2^BD2
Chain of KLHDC2^SBD / BRD2^BD2 (Q9Y2U9 15-361): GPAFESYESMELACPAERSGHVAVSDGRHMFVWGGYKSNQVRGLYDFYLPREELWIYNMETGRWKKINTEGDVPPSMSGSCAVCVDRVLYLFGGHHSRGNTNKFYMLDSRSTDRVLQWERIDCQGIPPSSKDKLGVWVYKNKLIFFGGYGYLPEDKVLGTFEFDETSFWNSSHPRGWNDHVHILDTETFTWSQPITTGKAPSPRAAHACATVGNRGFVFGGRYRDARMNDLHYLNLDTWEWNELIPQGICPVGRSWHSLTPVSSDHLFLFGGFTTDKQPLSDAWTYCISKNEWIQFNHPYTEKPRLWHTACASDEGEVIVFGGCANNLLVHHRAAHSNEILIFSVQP
Chain of KLHDC2^SBD / BRD2^BD2 (P25440 344-455): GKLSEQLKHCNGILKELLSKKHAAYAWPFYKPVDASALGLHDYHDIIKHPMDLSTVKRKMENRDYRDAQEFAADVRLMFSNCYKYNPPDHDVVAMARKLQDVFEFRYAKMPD

[4] = biological target: R56A KLHDC2^SBD / BRD3^BD2 (Homo sapiens, UniProt Q15059+Q9Y2U9, R56A); assay: ITC, ternary complex R56A KLHDC2^SBD with PROTAC-BRD3^BD2
Chain of R56A KLHDC2^SBD / BRD3^BD2 (Q9Y2U9 15-361 R56A): as the sequence (Q9Y2U9 15-361) above, with R42A counted along it
Chain of R56A KLHDC2^SBD / BRD3^BD2 (Q15059 306-416): as the sequence (Q15059 306-416) above

[5] = biological target: KLHDC2^SBD / G382E BRD2^BD2 (Homo sapiens, UniProt P25440+Q9Y2U9, G382E); assay: ITC, ternary complex KLHDC2^SBD with PROTAC-G382E BRD2^BD2
Chain of KLHDC2^SBD / G382E BRD2^BD2 (Q9Y2U9 15-361): as the sequence (Q9Y2U9 15-361) above
Chain of KLHDC2^SBD / G382E BRD2^BD2 (P25440 344-455 G382E): as the sequence (P25440 344-455) above, with G39E counted along it

[6] = biological target: KLHDC2^SBD / E344G BRD3^BD2 (Homo sapiens, UniProt Q15059+Q9Y2U9, E344G); assay: ITC, ternary complex KLHDC2^SBD with PROTAC-E344G BRD3^BD2
Chain of KLHDC2^SBD / E344G BRD3^BD2 (Q9Y2U9 15-361): as the sequence (Q9Y2U9 15-361) above
Chain of KLHDC2^SBD / E344G BRD3^BD2 (Q15059 306-416 E344G): as the sequence (Q15059 306-416) above, with E39G counted along it

[7] = biological target: KLHDC2^SBD / G386E BRD4^BD2 (Homo sapiens, UniProt O60885+Q9Y2U9, G386E); assay: ITC, ternary complex KLHDC2^SBD with PROTAC-G386E BRD4^BD2
Chain of KLHDC2^SBD / G386E BRD4^BD2 (Q9Y2U9 15-361, other chains not shown): as the sequence (Q9Y2U9 15-361) above

[8] = biological target: R112A KLHDC2^SBD / BRD3^BD2 (Homo sapiens, UniProt Q15059+Q9Y2U9, R112A); assay: ITC, ternary complex R112A KLHDC2^SBD with PROTAC-BRD3^BD2
Chain of R112A KLHDC2^SBD / BRD3^BD2 (Q9Y2U9 15-361 R112A): as the sequence (Q9Y2U9 15-361) above, with R98A counted along it
Chain of R112A KLHDC2^SBD / BRD3^BD2 (Q15059 306-416): as the sequence (Q15059 306-416) above

[9] = biological target: R56A KLHDC2^SBD / G386E BRD4^BD2 (Homo sapiens, UniProt O60885+Q9Y2U9, G386E/R56A); assay: ITC, ternary complex R56A KLHDC2^SBD with PROTAC-G386E BRD4^BD2
Chain of R56A KLHDC2^SBD / G386E BRD4^BD2 (Q9Y2U9 15-361 R56A, other chains not shown): as the sequence (Q9Y2U9 15-361) above, with R42A counted along it

[10] = biological target: H346A/R347A KLHDC2^SBD / BRD3^BD2 (Homo sapiens, UniProt Q15059+Q9Y2U9, H346A/R347A); assay: ITC, ternary complex H346A/R347A KLHDC2^SBD with PROTAC-BRD3^BD2
Chain of H346A/R347A KLHDC2^SBD / BRD3^BD2 (Q9Y2U9 15-361 H346A/R347A): as the sequence (Q9Y2U9 15-361) above, with H332A, R333A counted along it
Chain of H346A/R347A KLHDC2^SBD / BRD3^BD2 (Q15059 306-416, stated change not applied): as the sequence (Q15059 306-416) above

[11] = biological target: neddylated CRL2^KLHDC2 (tetrameric KLHDC2-EloB/C) (Homo sapiens, UniProt Q15059+Q9Y2U9); assay: Ubiquitylation assay monitoring disruption of the KLHDC2-EloBC tetrameric assembly
[12] = cell: SJ46421, syringe: BRD3^BD2
[13] = ITC, syringe KLHDC2, cell BRD2BD2-compound, Rep1, Rep2
[14] = cell: PROTAC-BRD2^BD2, syringe: KLHDC2^SBD
[15] = cell: SJ46421-BRD3^BD2, syringe: R56A KLHDC2^SBD
[16] = cell: SJ46421-G382E BRD2^BD2, syringe: KLHDC2^SBD
[17] = cell: SJ46421-E344G BRD3^BD2, syringe: KLHDC2^SBD
[18] = cell: SJ46421-G386E BRD4^BD2, syringe: KLHDC2^SBD
[19] = ITC source data Fig4f, N=1, syringe R112A KLHDC2, cell SJ46421-BRD3BD2
[20] = ITC, syringe R112A KLHDC2, cell compound-BRD3BD2, N=1
[21] = cell: SJ46421-BRD3^BD2, syringe: R112A KLHDC2^SBD, n=1
[22] = cell: SJ46421-G386E BRD4^BD2, syringe: R56A KLHDC2^SBD
[23] = ITC source data Fig4f, N=1, syringe H346A/R347A KLHDC2, cell SJ46421-BRD3BD2
[24] = ITC, syringe H346A/R347A KLHDC2, cell compound-BRD3BD2, N=1
[25] = cell: SJ46421-BRD3^BD2, syringe: H346A/R347A KLHDC2^SBD, n=1

For `COC(=O)CNC(=O)Cc1csc(-c2ccc3cccc(OCCN4CCN(C(=O)C[C@@H]5N=C(c6ccc(Cl)cc6)c6c(sc(C)c6C)-n6c(C)nnc65)CC4)c3c2)n1` [SJ46420], the “change of protein levels by TMT proteomics” value ([1]; KO/rescue U2OS cells) was “BRD3 was most substantially downregulated, with lesser reductions in the levels of BRD4 and BRD2”, the “change of protein levels by TMT proteomics” value ([1]; U2OS KLHDC2 KO cells) was “not observed” and the IC50 [2] was about 300 nM.
With `Cc1sc2c(c1C)C(c1ccc(Cl)cc1)=N[C@@H](CC(=O)N1CCN(CCOc3cccc4ccc(-c5nc(CC(=O)NCC(=O)O)cs5)cc34)CC1)c1nnc(C)n1-2` [SJ46421] the cellular permeability [3] was “poor cellular permeability; also recorded: poor permeability properties”, the IC50 (neddylated CRL2^KLHDC2) was 2600 nM and the Kd (BRD3^BD2; ITC Kd, cell: SJ46421, syringe: BRD3^BD2) was 1000 ± 194 nM. For the same compound, the “(-)TDS” value (BRD3^BD2; ITC, syringe BRD3BD2, cell compound, Rep1, Rep2) was 5.34 and 5, the Kd (BRD3^BD2; Kd, Rep1/Rep2, ITC source data Fig4a, syringe BRD3BD2, cell SJ46421) was 1070 nM and 908 nM and the “ITC -TΔS” value (BRD3^BD2; [12]) was 5.11 +/- 0.24 kcal/mol-1. For the same compound, the “ITC N” value (BRD3^BD2; [12]) was 0.9, the “ITC ΔH” value (BRD3^BD2; [12]) was -13.5 +/- 0.53 kcal/mol-1 and the “ΔG (binary + ternary)” value (KLHDC2^SBD / BRD2^BD2; BRD2^BD2) was -18.4 kcal/mol. The “(-)TDS” value (KLHDC2^SBD / BRD2^BD2; [13]) was 1.18 and 0.97, the DH (KLHDC2^SBD / BRD2^BD2; [13]) was -10.5 and the “ITC -TΔS (ternary)” value (KLHDC2^SBD / BRD2^BD2; [14]) was 1.08 +/- 0.19 kcal/mol-1. The “ITC N (ternary)” value (KLHDC2^SBD / BRD2^BD2; [14]) was 0.9, the “ITC ΔG (ternary)” value (KLHDC2^SBD / BRD2^BD2; [14]) was -9.33 +/- 0.05 kcal/mol-1 and the “ITC ΔH (ternary)” value (KLHDC2^SBD / BRD2^BD2; [14]) was -10.4 +/- 0.10 kcal/mol-1. The “cooperativity α” value ([4]; BRD3^BD2, R56A KLHDC2^SBD) was 1.7, the Kd ([4]; Kd, Rep1/Rep2, ITC source data Fig4f, syringe R56A KLHDC2, cell SJ46421-BRD3BD2) was 291 nM and 255 nM and the “ITC -TΔS (ternary)” value [4, 15] was -5.02 +/- 0.31 kcal/mol-1. The “ITC N (ternary)” value [4, 15] was 1.1, the “ITC ΔG (ternary)” value [4, 15] was -9.19 +/- 0.03 kcal/mol-1 and the “ITC ΔH (ternary)” value [4, 15] was -3.68 +/- 0.03 kcal/mol-1. For the same compound, the “cooperativity α” value ([5]; G382E BRD2^BD2, KLHDC2^SBD) was 3.2, the “(-)TDS” value ([5]; ITC, syringe KLHDC2, cell compound-G382EBRD2BD2, Rep1, Rep2) was 0.62 and 0.68 and the Kd ([5]; Kd, Rep1/Rep2, ITC source data Fig4f, syringe KLHDC2, cell SJ46421-G382EBRD2BD2) was 103 nM and 88.1 nM. For the same compound, the “ITC -TΔS (ternary)” value [5, 16] was 0.65 +/- 0.07 kcal/mol-1, the “ITC N (ternary)” value [5, 16] was 0.9 and the “ITC ΔG (ternary)” value [5, 16] was -9.80 +/- 0.02 kcal/mol-1. For the same compound, the “ITC ΔH (ternary)” value [5, 16] was -10.5 +/- 0.11 kcal/mol-1, the “cooperativity α” value ([6]; E344G BRD3^BD2, KLHDC2^SBD) was 1.7 and the Kd ([6]; Kd, Rep1/Rep2, ITC source data Fig4f, syringe KLHDC2, cell SJ46421-E344GBRD3BD2) was 187 nM and 175 nM. For the same compound, the “ITC -TΔS (ternary)” value [6, 17] was -2.23 +/- 0.12 kcal/mol-1, the “ITC N (ternary)” value [6, 17] was 1.0 and the “ITC ΔG (ternary)” value [6, 17] was -9.42 +/- 0.08 kcal/mol-1. For the same compound, the “ITC ΔH (ternary)” value [6, 17] was -7.19 +/- 0.05 kcal/mol-1, the “cooperativity α” value ([7]; G386E BRD4^BD2, KLHDC2^SBD) was 13 and 12.7 and the Kd ([7]; Kd, Rep1/Rep2, ITC source data Fig4f, syringe KLHDC2, cell SJ46421-G386EBRD4BD2) was 23.4 nM and 25.9 nM. For the same compound, the “ITC -TΔS (ternary)” value [7, 18] was -1.30 +/- 0.11 kcal/mol-1, the “ITC N (ternary)” value [7, 18] was 0.9 and the “ITC ΔG (ternary)” value [7, 18] was -10.6 +/- 0.04 kcal/mol-1. For the same compound, the “ITC ΔH (ternary)” value [7, 18] was -9.05 +/- 0.37 kcal/mol-1, the Kd [8] was 39.7 nM and the “(-)TDS, Rep1” value [8, 19] was -7.43. The “DG, Rep1” value [8, 19] was -10.3, the “DH, Rep1” value [8, 19] was -2.9 and the “(-)TDS” value [8, 20] was -7.43. For the same compound, the DG [8, 20] was -10.3, the DH [8, 20] was -2.9 and the “cooperativity α” value ([8]; R112A KLHDC2^SBD, estimated from the binding affinity of SJ46421 to WT KLHDC2) was 7.6. For the same compound, the “ITC -TΔS (ternary)” value [8, 21] was -7.43 kcal/mol-1, the “ITC N (ternary)” value [8, 21] was 0.8 and the “ITC ΔG (ternary)” value [8, 21] was -10.3 kcal/mol-1. The “ITC ΔH (ternary)” value [8, 21] was -2.9 kcal/mol-1, the “cooperativity α” value ([9]; G386E BRD4^BD2, R56A KLHDC2^SBD) was 1.4 and the Kd ([9]; Kd, Rep1/Rep2, ITC source data Fig4f, syringe R56A KLHDC2, cell SJ46421-G386EBRD4BD2) was 333 nM and 325 nM. The “ITC -TΔS (ternary)” value [9, 22] was -4.42 +/- 0.19 kcal/mol-1, the “ITC N (ternary)” value [9, 22] was 1.1 and the “ITC ΔG (ternary)” value [9, 22] was -9.05 +/- 0.01 kcal/mol-1. For the same compound, the “ITC ΔH (ternary)” value [9, 22] was -4.69 +/- 0.15 kcal/mol-1, the Kd [10] was 50.9 nM and the “cooperativity α” value ([10]; H346A/R347A KLHDC2^SBD, estimated from the binding affinity of SJ46421 to WT KLHDC2) was 6.0. The “(-)TDS, Rep1” value [10, 23] was -7.83, the “DG, Rep1” value [10, 23] was -10.2 and the “DH, Rep1” value [10, 23] was -2.36. For the same compound, the “(-)TDS” value [10, 24] was -7.83, the DG [10, 24] was -10.2 and the DH [10, 24] was -2.36. For the same compound, the “ITC -TΔS (ternary)” value [10, 25] was -7.83 kcal/mol-1, the “ITC N (ternary)” value [10, 25] was 0.9 and the “ITC ΔG (ternary)” value [10, 25] was -10.2 kcal/mol-1. For the same compound, the “ITC ΔH (ternary)” value [10, 25] was -2.36 kcal/mol-1, the “KLHDC2~UB level, Rep1/Rep2” value ([11]; Monomer, + BRD3-SJ46421, pre-incubation 0) was 0.5851 and 0.3857 and the “KLHDC2~UB level, Rep1/Rep2” value ([11]; Tetramer, + BRD3-SJ46421, pre-incubation 0) was 67.2962 and 61.2938. The “KLHDC2~UB level, Rep1/Rep2” value ([11]; Tetramer, + BRD3-SJ46421, pre-incubation 2) was 32.2274 and 23.9384 and the “KLHDC2~UB level, Rep1/Rep2” value ([11]; Tetramer, + BRD3-SJ46421, pre-incubation 5) was 1.6168 and 2.133.
